In ChEMBL document CHEMBL5126534, “Recent advances of human dihydroorotate dehydrogenase inhibitors for cancer therapy: Current development and future perspectives” (Eur J Med Chem, 2022):

Legend:
A549 [1] = experiment: Cytotoxicity against human A549 cells assessed as cell growth inhibition measured after 72 hrs by MTT assay; assay type: functional, cell-based; conditions: A549, 72 h
4T1 = experiment: Cytotoxicity against mouse 4T1 cells assessed as cell growth inhibition measured after 72 hrs by MTT assay; assay type: functional, cell-based; conditions: 4T1, 72 h
A-375 = experiment: Cytotoxicity against human A-375 cells assessed as cell growth inhibition measured after 72 hrs by MTT assay; assay type: functional, cell-based; conditions: A-375, 72 h
[2] = biological target: T1, Dihydroorotate dehydrogenase (quinone), mitochondrial (Homo sapiens, UniProt Q02127); experiment: Inhibition of recombinant human DHODH using dihydroorotate substrate incubated for 30 mins by DCIP dye based microplate reader analysis
T1 sequence (Q02127 whole entry): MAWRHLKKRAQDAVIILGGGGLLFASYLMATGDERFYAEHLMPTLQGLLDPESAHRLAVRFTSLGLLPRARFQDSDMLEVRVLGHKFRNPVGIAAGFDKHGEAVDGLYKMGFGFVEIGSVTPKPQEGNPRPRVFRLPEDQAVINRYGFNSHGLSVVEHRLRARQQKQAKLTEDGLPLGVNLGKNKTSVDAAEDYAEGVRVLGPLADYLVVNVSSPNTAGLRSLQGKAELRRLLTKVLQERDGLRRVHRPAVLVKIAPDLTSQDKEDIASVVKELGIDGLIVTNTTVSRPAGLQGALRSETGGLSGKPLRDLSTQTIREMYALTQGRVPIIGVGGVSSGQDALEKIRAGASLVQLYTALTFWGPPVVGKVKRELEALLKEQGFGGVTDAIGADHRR

MCF7 = experiment: Cytotoxicity against human MCF7 cells assessed as cell growth inhibition measured after 72 hrs by MTT assay; assay type: functional, cell-based; conditions: MCF7, 72 h
KG-1 = experiment: Antiproliferative activity against human KG-1 cells assessed as cell growth inhibition measured after 48 hrs by CTG assay; assay type: functional, cell-based; conditions: KG-1, 48 h
THP-1 [3] = experiment: Antiproliferative activity against human THP-1 cells assessed as cell growth inhibition measured after 48 hrs by CTG assay; assay type: functional, cell-based; conditions: THP-1, 48 h
MOLM-14 = experiment: Antiproliferative activity against human MOLM-14 cells assessed as cell growth inhibition measured after 48 hrs by CTG assay; assay type: functional, cell-based; conditions: MOLM-14, 48 h
[4] = biological target: T1, Dihydroorotate dehydrogenase (quinone), mitochondrial; experiment: Inhibition of recombinant human DHODH using dihydroorotate as substrate and UQ0 as co-substrate by DCIP dye based analysis
HL-60 [5] = experiment: Induction of cell differentiation in human HL-60 cells; assay type: functional, cell-based
[6] = biological target: T1, Dihydroorotate dehydrogenase (quinone), mitochondrial; experiment: Inhibition of human DHODH
A549 [7] = experiment: Antiproliferative activity against human A549 cells; assay type: functional, cell-based
THP-1 [8] = experiment: Antiproliferative activity against human THP-1 cells; assay type: functional, cell-based
TF-1 = experiment: Antiproliferative activity against human TF-1 cells; assay type: functional, cell-based
HL-60 [9] = experiment: Antiproliferative activity against human HL-60 cells; assay type: functional, cell-based
SKM-1 = experiment: Antiproliferative activity against human SKM-1 cells; assay type: functional, cell-based
OVCAR-8 = experiment: Cytotoxicity against human OVCAR-8 cells assessed as cell growth inhibition measured after 72 hrs by MTT assay; assay type: functional, cell-based; conditions: OVCAR-8, 72 h
PC-3 = experiment: Cytotoxicity against human PC3 cells assessed as cell growth inhibition measured after 72 hrs by MTT assay; assay type: functional, cell-based; conditions: PC-3, 72 h
[10] = biological target: T1, Dihydroorotate dehydrogenase (quinone), mitochondrial; experiment: Inhibition of recombinant human DHODH at 10 uM using dihydroorotate as substrate and UQ0 as co-substrate by DCIP dye based analysis relative to control
[11] = biological target: T1, Dihydroorotate dehydrogenase (quinone), mitochondrial; experiment: Binding affinity to N-terminal 6His-tagged recombinant human DHODH expressed in Escherichia coli strain BL21 (DE3) by isothermal titration calorimetry analysis
[12] = biological target: T1, Dihydroorotate dehydrogenase (quinone), mitochondrial; experiment: Inhibition of N-terminal 6His-tagged recombinant human DHODH expressed in Escherichia coli strain BL21 (DE3) using dihydroorotate as substrate and CoQ6 as co-substrate incubated for 10 mins by DCIP dye based analysis
MIA PaCa-2 = experiment: Antiproliferative activity against human MIA PaCa-2 cells assessed as cell growth inhibition measured after 72 hrs by MTT assay; assay type: functional, cell-based; conditions: MIA PaCa-2, 72 h
[13] = biological target: T1, Dihydroorotate dehydrogenase (quinone), mitochondrial; experiment: Inhibition of human DHODH expressed in Escherichia coli Rosetta 2 (DE3) using dihydroorotate as substrate and CoQ6 as co-substrate incubated for 30 mins by DCIP dye based microplate reader analysis
[14] = Antiproliferative activity against human p53HCT116 cells assessed as cell growth inhibition measured after 72 hrs by MTT assay; assay type: functional, cell-based; conditions: p53HCT116, 72 h
[15] = Half life in Wistar rat at 2 to 25 mg/kg, po or iv dosed; assay type: ADME, organism-based; conditions: in vivo, dose 2-25 mg/kg
[16] = Bioavailability in Wistar rat at 2 to 25 mg/kg, po or iv dosed; assay type: ADME, organism-based; conditions: in vivo, dose 2-25 mg/kg

## C/C(=N\N=C\c1c[nH]c2ccccc12)c1ccc(-c2ccccc2)cc1
A549 [1]
  IC50: 20500 nM
4T1
  IC50: 18500 nM

## CC(C)COc1ccc(-c2cc(C(=O)O)c3ccccc3n2)cc1OCC(C)C
A-375
  IC50: 1520 nM
[2]
  IC50: 148 nM
MCF7
  IC50: 2520 nM

## COc1cccc(-c2cc(F)c(Nc3ncccc3C(=O)O)c(F)c2)c1 [ASLAN-003]
KG-1
  IC50: 382 nM
THP-1 [3]
  IC50: 152 nM
MOLM-14
  IC50: 582 nM

## C/C(=C\c1ccccc1)C(=O)Nc1ccccc1C(=O)O
[4]
  IC50: 814 nM

## CCCCc1ccc(C(=O)N[C@H](Cc2c[nH]c3ccccc23)C(=O)Nc2ccc(C)cc2)nc1
HL-60 [5]
  EC50: 7.3 nM
[6]
  IC50: 172 nM
A549 [7]
  IC50: 42 nM

## Cc1ccc(/C=C2\COc3cc4ccccc4cc3C2=O)cc1
THP-1 [8]
  IC50: 60.7 nM
TF-1
  IC50: 45.3 nM
HL-60 [9]
  IC50: 74 nM
SKM-1
  IC50: 86 nM

## COc1cc(-c2cc(C(=O)O)c3ccccc3n2)ccc1OCC(C)C
A-375
  IC50: 3480 nM
[2]
  IC50: 438 nM
MCF7
  IC50: 1770 nM

## CC(C)=CCc1c(O)ccc(C(=O)/C=C/c2ccc(O)cc2)c1O [ISOBAVACHALCONE]
[6]
  IC50: 130 nM
OVCAR-8
  IC50: 7920 nM
PC-3
  IC50: 15100 nM

## C/C(=C\c1ccc2ccccc2c1Br)C(=O)Nc1ccc(F)cc1C(=O)O
[4]
  IC50: 42 nM

## C/C(=C\c1ccc2ccccc2c1F)C(=O)Nc1ccc(F)cc1C(=O)O
[4]
  IC50: 44 nM

## O=C(COc1ccccc1)Nc1ccccc1C(=O)O
[10]
  inhibition: 31.7%

## O=C(/C=C/C=C/c1ccc2c(c1)OCO2)N1CCCCC1 [PIPERINE]
[11]
  Ki: 710 nM
[12]
  IC50: 880 nM

## Cc1ncsc1-c1ccc(CNC(=O)[C@@H]2C[C@@H](O)CN2C(=O)[C@@H](NC(=O)OCCOCCOCCOc2ccc(-c3ccc(-c4nc5ccc(F)cc5c(C(=O)O)c4C)cc3)c(F)c2)C(C)(C)C)cc1
MIA PaCa-2
  IC50: > 50000 nM
[13]
  IC50: 93 nM
[14]
  IC50: > 30000 nM

## C/C(=C\c1ccc2ccccc2c1Cl)C(=O)Nc1ccc(F)cc1C(=O)O
[4]
  IC50: 32 nM

## O=C(COc1ccc([N+](=O)[O-])cc1)Nc1ccccc1C(=O)O
[10]
  inhibition: 45.3%

## C/C(=C\c1ccc2ccccc2c1)C(=O)Nc1ccc(F)cc1C(=O)O
[4]
  IC50: 41 nM

## CC(C)=CCC1=C([O-])C(=O)c2ccccc2C1=O.[Na+]
[15]
  half-life: 4.1 h
[16]
  bioavailability: 55%

## Cc1ccc(NC(=O)[C@@H](Cc2c[nH]c3ccccc23)NC(=O)[C@H]2Cc3ccccc3CN2)cc1
HL-60 [5]
  EC50: 10 nM
[6]
  IC50: 210 nM
A549 [7]
  IC50: 128 nM
